These results are taken from patent US20140050779A1, “[…]-2 INHIBITORS AND USES THEREOF” (SINGAPORE HEALTH SERVICES PTE. LTD., priority 2011, published 2014).

The subject of data set [1] is TG-2. In words: TG-2 colorimetric microassay (transamidase activity) in lysate of treated human scleral fibroblasts. In kind it is cell-based. The settings on record: for transamidase activity of endogenous cellular TG-2: human scleral fibroblasts, 0.1, 1, 10 and 100 μM for 5 days, concentration-dependent. The procedure:
(§1) All cells used in examples described herein were between passages 2-4. Passaged cells were plated at a concentration of 2×10^5/mL into 6 well plates containing DMEM with 10% FBS. […] Old media was removed from wells and 1 mL of drug was added with fresh full medium and incubated at 37° C. Fresh drugs were replaced daily consecutively for the next 5 days to avoid oxidation. The drugs/media was removed and wells were washed twice with 1×PBS. 200 μl of RIPA lysis buffer was added per well and incubated for 5 minutes and cells were scrapped into an eppendorf tube. The cells were stored at −20° C. until sonication. The cells were sonicated on ice thrice at 20% output power for 5 seconds each time and rested 1 minute in between each turn. Cell debris was spun down at 12000 rpm for 20 minutes. The supernatant was poured into a new eppendorf tube and cell concentrations were determined using the Dc Protein assay Kit (Bio-Rad, MA). Passaged cells were plated at a concentration of 1×10^5 into 6 well plates containing DMEM with 10% FBS. […] Freshly prepared muscarinic agents' at base line, 0.1, 1, 10 and 100 μM concentrations were added for 5 days (Table 2). The culture medium was removed and fresh medium containing the same muscarinic drug added every day to avoid drug changes such as atropine oxidation. Cell lysate was collected for relative quantitative (q) PCR and protein analysis at day 5.
(§2) This assay was designed to assess the cross-linking activity of TG-2 between two proteins. TG activity was measured with TG-2 colorimetric Microassay kit (TG-Covtest, Covalab, Cambridge, UK). 150-200 μg of total protein was used per well for the TG-2 assay. Transglutaminase standards (Sigma) were used as a positive control. EDTA was used to inhibit the enzyme activity as a negative control.
(§3) The approximate volume of reagents to use, the wavelengths to use to read absorbance, the incubation times were determined from a previous study that have carried out experiments with similar principles as described in Perez Alea M, Kitamura M, Martin G, Thomas V, Hitomi K, El Alaoui S., “Development of an isoenzyme-specific colorimetric assay for tissue transglutaminase 2 cross-linking activity”, Anal Biochem. 2009 Jun. 15; 389(2):150-6, Epub 2009 March 24. All reagents used and protein coated plates were part of the kit. Biotin cadaverine was reconstituted with 6 ml of deionized water and 90 μl was added into each well of the 96 well plate that comes coated with CBZ-GLN-GLY. The rest of the steps were followed as in the manufacturer's instructions and finally absorbance was read at 450 nm using a microplate reader (TECAN, Austria). All incubations were performed with gentle shaking on a laboratory orbital shaker.
(§4) The TG-2 colorimetric assay serves as a high throughput and quantitative assay to assess transamidase activity. […] In vivo studies with these drugs were also conducted to determine the effect on myopia development (see FIGS. 14 and 15).

The test system of data set [2] is TG-2. In words: TG-2 colorimetric microassay (transamidase activity) in lysate of treated mouse scleral fibroblasts. In kind it is cell-based. The following applies: for transamidase activity of endogenous cellular TG-2: mouse scleral fibroblasts, 0.1, 1, 10 and 100 μM for 5 days, concentration-dependent. The protocol:
as §1, §2, §3, §4

The test system of data set [3] is TG-2. In words: Western blot of TG proteins in mouse scleral fibroblasts after muscarinic agents. The settings on record: very low concentrations. In kind it is cell-based. The procedure:
(§5) All cells used in examples described herein were between passages 2-4. Passaged cells were plated at a concentration of 2×10^5/mL into 6 well plates containing DMEM with 10% FBS. The cells were seen to attach to the bottom of the culture wells after 4 hours. Old media was removed from wells and 1 mL of drug was added with fresh full medium and incubated at 37° C. Fresh drugs were replaced daily consecutively for the next 5 days to avoid oxidation. The drugs/media was removed and wells were washed twice with 1×PBS. 200 μl of RIPA lysis buffer was added per well and incubated for 5 minutes and cells were scrapped into an eppendorf tube. The cells were stored at −20° C. until sonication. The cells were sonicated on ice thrice at 20% output power for 5 seconds each time and rested 1 minute in between each turn. Cell debris was spun down at 12000 rpm for 20 minutes. The supernatant was poured into a new eppendorf tube and cell concentrations were determined using the Dc Protein assay Kit (Bio-Rad, MA). Passaged cells were plated at a concentration of 1×10^5 into 6 well plates containing DMEM with 10% FBS. The cells were seen to attach to the bottom of the culture wells after 4 hours. Freshly prepared muscarinic agents' at base line, 0.1, 1, 10 and 100 μM concentrations were added for 5 days (Table 2). The culture medium was removed and fresh medium containing the same muscarinic drug added every day to avoid drug changes such as atropine oxidation. Cell lysate was collected for relative quantitative (q) PCR and protein analysis at day 5.
(§6) The cells were lysed by sonification in 1×RIPA lysis buffer (santa cruz biotechnology, Sc-24948) with 10 μl PMSF solution, 10 μl sodium orthovanadate solution and 20 μl protease inhibitor cocktail solution. After centrifugation at 20,000×g at 4° C. for 20 minutes, and the supernatant collected. The protein content in the supernatants was measured using the DC Protein Assay kit (Bio-Rad, MA) following the manufacturer's instructions. Samples were stored at −80° C. until assayed.
(§7) The mouse and human scleral fibroblasts were treated with atropine or carbachol at 0.01, 0.1, 1, 5 and 10 μM concentrations for 5 days. Following 5 days of treatment, the total cellular protein was extracted from these cells and TG proteins detected via Western blot analysis.
Human and, mouse scleral fibroblast proteins in the supernatant were separated by SDS-PAGE, transferred to nitrocellulose membranes, blocked in 5% BSA in TBST (10 mM Tris-HCl [pH 8.0], 150 mM NaCl, and […] Tween-20) for 2 hours at room temperature, and incubated with the same anti-TG-2 antibody described herein at a dilution of 1:1000 and anti β-tubulin antibodies used as a positive control, for 1 hour at room temperature. The membranes were washed 3 times in TBST and incubated with HRP-conjugated secondary antibody (Chemicon International) at a dilution of 1:2500 for 1 hour at room temperature. Immunoreactive bands were visualized using the enhanced chemiluminescence method (GE Healthcare, Buckinghamshire, UK). The membrane was wrapped in plastic and placed against an X-ray film to expose for an appropriate length of time (30 seconds-5 minutes).
(A western blot detects proteins with antibodies after separation by electrophoresis.)

Data set [4] concerns mouse eyes treated with −15D spectacle lens. In words: spectacle lens-induced myopia in mice, axial length and refractive error. In kind it is in vivo. The following applies: lens with 0.1% drug; for axial length: 2 weeks and 4 weeks, vs lens treated eyes; for refractive error: infrared photorefractor. The protocol: Topical applications were administered to both eyes at the same time each day (approximately 9:00 AM) commencing on the 12th day (initiation of spectacle lens treatment). A compatible drug level was determined prior to the in vivo use in a tissue culture study with mouse scleral fibroblasts. […] This treatment schedule continued for four weeks starting on post-natal day 12 continued until post-natal day 42. All measurements were taken at post-natal day 42, the equivalent of 4 weeks of spectacle lens wear.
Each eye was refracted every week to measure the refractive error using automated infrared photorefraction as described in Barathi, V. A., Beuerman, R. W., Schaeffel, F., 2009a, “Effects of unilateral topical atropine on binocular pupil responses and eye growth in mice”, Vision Res 49, 383-387. By using Optical Low Coherence Interferometry (OLCI, AC Master, Carl-Zeiss), the axial length of the eye was measured in-vivo as described in Yin G C, Gentle A, McBrien N A, “Muscarinic antagonist control of myopia: a molecular search for the M1 receptor in chick”, Mol. Vis. 2004; 13(10):787-93 and Barathi, V. A., Boopathi, V. G., Yap, E. P., Beuerman, R. W., 2008, “Two models of experimental myopia in the mouse”, Vision Res 48, 904-916. […] Differences of refractive power and axial length between eyes were calculated. Independent t-tests were used to compare experimental and control eyes in wild type and TGM2-deleted or M1-M5 mutant mice.
Right eyes were experimental and left eyes served as contra-lateral control. In vivo axial length was measured at 2 weeks and 4 weeks after treatment. […] Automated infrared photorefractor was used to measure the refractive error measurements.

The subject of data set [5] is TG-2. In words: Western blot of TG proteins in human scleral fibroblasts after muscarinic agents. In kind it is cell-based. The settings on record: very low concentrations. The protocol:
as §5, §6, §7
Human and, mouse scleral fibroblast proteins in the supernatant were separated by SDS-PAGE, transferred to nitrocellulose membranes, blocked in 5% BSA in TBST (10 mM Tris-HCl [pH 8.0], 150 mM NaCl, and […] Tween-20) for 2 hours at room temperature, and incubated with the same anti-TG-2 antibody described herein at a dilution of 1:1000 and anti β-tubulin antibodies used as a positive control, for 1 hour at room temperature. […]

For data set [6], the system named is cultured SF cells. In words: effect of TG-2 inhibitors on cultured scleral fibroblast growth (XCELLigence). In kind it is cell-based. The settings on record: for SF cell growth and cell numbers: 0.1 μM, 5 days; for SF cell growth and cell numbers at higher concentrations: above 0.1 μM, concentration dependent manner. The procedure: To test the effect of TG-2 inhibitors on cultured scleral fibroblast growth, cultured SF cells at passage 4 were treated with TG-2 inhibitors at baseline, 0.1, 1, 10 and 100 μM for 5 days. The SF cell growth was monitored by XCELLigence cell impedance.

On to `C[N+]1(C)CCC(OC(=O)C(c2ccccc2)c2ccccc2)CC1.[I-]` [4-DAMP, 1,1-Dimethyl-4-diphenylacetoxypiperidinium iodide], for which the “transamidase activity of endogenous cellular TG-2” value (“transamidase activity” for short) in data set [1] and in data set [2] was “reduced” each time. For the same molecule, the “TG-2 protein level (reduction)” value in data set [3] and in data set [5] was “significant” throughout. Further, the axial length result in data set [4] is “significantly reduced”. Further, in data set [4], the refractive error entry is “shifted from myopic to hyperoic”.
Take `CCN(CC)CC1CCCCN1CC(=O)N1c2ccccc2C(=O)Nc2cccnc21` (stereo not shown) [AFDX-116]: the “transamidase activity” value in data set [1] and in data set [2] was “reduced” each time.
Consider `CC(=O)CSc1n(C)cc[n+]1C.[Cl-]` [D003], for which, in data set [6], the cell morphology result is “No change”; the “SF cell growth and cell numbers” value is recorded as “significantly reduced”; the “SF cell growth and cell numbers at higher concentrations” value is on record as “further reduced”.
Consider `NC(=O)C(c1ccccc1)(c1ccccc1)[C@@H]1CCN(CCc2ccc3c(c2)CCO3)C1` [darifenacin], for which the “transamidase activity” value in data set [1] and in data set [2] was “reduced” throughout. Besides, the “TG-2 activity, strongest reduction among the antagonists” value is listed as “most significantly reduced” in data set [1] (human scleral fibroblasts, all concentrations); “most significantly reduced” in data set [1] (human scleral fibroblasts, low concentrations); “most significantly reduced” in data set [2] (mouse scleral fibroblasts, low concentrations). Moreover, in data set [1] (human scleral fibroblasts, himbacine 0.1, 1, 10 & 100 μM, darifenacin 0.1, 1 & 10 μM), the “TG-2 activity as compared to atropine” value is reported as “more significantly reduced”. Further, the “TG-2 protein level (reduction)” value in data set [3] and in data set [5] was “significant” in each case. The axial length entry in data set [4] is reported as “significantly reduced”. The refractive error result in data set [4] is “shifted from myopic to hyperoic”.
Take `CN1CCN(CC(=O)N2c3ccccc3C(=O)Nc3cccnc32)CC1` [pirenzepine]: the “transamidase activity” value in data set [1] and in data set [2] was “reduced” throughout.
For the molecule TAMRA-DON [R002], in data set [6], the “SF cell growth and cell numbers” value is reported as “significantly reduced”; the “SF cell growth and cell numbers at higher concentrations” value is recorded as “further reduced”.
